The results in this text go back to patent publication US7482008B1, “Human T cell reactive feline protein (TRFP) isolated from house dust and uses therefor” (Merck Patent GmbH, priority 1989, dated 2009).

One test deals with B6CBAF1 mice. Briefly: Tolerization s.c. then challenge with recombinant chain 1 of TRFP, chain 1 specific IL-2 production. The format is in vivo, mouse. As to conditions: 150 μg/dose s.c. days 0 and 5; challenge 100 μg recombinant chain 1 in CFA. How it is done:
The mice were injected with 150 μg/dose of either the TRFP chain 1 or each of the peptides (days 0 and 5). The PBS alone and the PBS/peptides were injected in 300 μl/dose. The PBS/chain 1 of the TRFP protein was injected in 100 μl/dose. All tolerizing doses were at a single site under the dorsal skin between the forelimbs. On day 10 all of the animals received a challenge injection of 100 μg recombinant chain 1 of TRFP in 200 μl CFA as described above. On day 20 the animals were sacrificed and draining lymph nodes were removed as described above. The lymph node cells were suspended, rinsed, and cultured as above with or without 150 μg/ml recombinant chain 1 of TRFP. The lymph node cell cultures in this experiment were each 0.1 ml. The supernatants from the cultures were assayed for IL-2 as described above.

The subject of the next test is human IgE. Put plainly: Western blot and ELISA of human IgE binding to affinity purified TRFP. The text has this: A protein preparation was extracted from the contents of vacuum cleaner bags by a method based on that of M. D. Chapman and co-workers. Chapman, M. D. et al., J. Immunol., 140(3): 812-818 (1988). Monoclonal antibody reactive with Fel d I, produced by Chapman and co-workers, was used to identify a protein in the preparation. de Groot, H. et al., J. Allergy Clin. Immunol., 82:778-786 (1988). Selected monoclonal antibodies (designated 1G9 and 6F9) that recognize Fel d I native protein were used to affinity purify a protein, which is referred to as human T cell reactive feline protein (TRFP) (also referred to as VCB or vacuum cleaner bag protein) from a house dust sample. This was carried out, using known techniques, by producing the desired monoclonal antibody, isolating it in large quantities from ascites and immobilizing it on Sepharose 4B (Pharmacia). The protein preparation was extracted from vacuum cleaner bags of house dust obtained from several homes with cats. Aqueous vacuum cleaner bag extract was first subjected to gel filtration and decolorization and, subsequently, affinity chromatography purification. Aqueous vacuum cleaner bag extract was passed over the monoclonal antibody-containing column and a protein species was eluted. […] The affinity purified TRFP was subjected to a number of protein chemical procedures to derive primary amino sequence data. […]

“recombinant chain 1: recombinant TRFP chain 1 expressed in E. coli”: the “IL-2 production specific for chain 1 of TRFP” value with B6CBAF1 mice is reported as “effective in decreasing IL-2 production”.
On to “TRFP: human T cell reactive feline protein affinity purified from house dust; two covalently linked chains”, for which, in the test on human IgE, the “human IgE binding” value is “bind human IgE”.
